Source: patent US9457033B2, “Steroid alkaloids and uses thereof as antimicrobial agents against electron transport-deficient microbes and as potentiators for antimicrobial agents against pathogenic bacteria” (priority 2011, dated 2016)
In brackets after ≈: the same amount, converted by molar mass. Where two headings read alike, the source gives them in different places.

Columns and labels:
S. aureus CF2A-L = assay: MIC, microdilution in CAMHB 24 h; format: cell-based; conditions: Staphylococcus aureus, CF2AL; CF2A-L; Human (CF lungs); read-out: MIC
S. aureus SHY97-3906 = assay: MIC, microdilution in CAMHB 24 h; format: cell-based, Staphylococcus aureus; conditions: Staphylococcus aureus, SHY973906; SHY97-3906; Cow (mastitis); read-out: MIC
S. aureus ATCC 43300 = assay: MIC, microdilution in CAMHB 24 h; format: cell-based, Staphylococcus aureus; conditions: Staphylococcus aureus, ATCC 43300 / MRSA; ATCC 43300; Human (HA); MRSA; read-out: MIC
S. aureus Sa228c = assay: MIC, microdilution in CAMHB 24 h; format: cell-based, Staphylococcus aureus; conditions: Staphylococcus aureus, MRSA
S. aureus CF7A-L = assay: MIC, microdilution in CAMHB 24 h; format: cell-based, Staphylococcus aureus; conditions: Staphylococcus aureus; CF7A-L; Human (CF lungs); MRSA; read-out: MIC
[1] = tested on: S. aureus CF07-L (normal strain); assay: MIC, microdilution in BHI 48 h (Examples 1, 3); format: cell-based, Staphylococcus aureus
S. aureus CF8E-L = assay: MIC, microdilution in CAMHB 24 h; format: cell-based, Staphylococcus aureus; conditions: Staphylococcus aureus, CF8EL; CF8E-L; Human (CF lungs); read-out: MIC
S. aureus MA078038 = assay: MIC, microdilution in CAMHB 24 h; format: cell-based, Staphylococcus aureus; conditions: Staphylococcus aureus; MA078038; Human (CA); MRSA; read-out: MIC
S. aureus Sa220c = assay: MIC, microdilution in CAMHB 24 h; format: cell-based, Staphylococcus aureus; conditions: Staphylococcus aureus; Sa220c; Human (SSTI); MRSA; read-out: MIC
S. aureus SCV CF1D-S = assay: MIC, microdilution in BHI 48 h; format: cell-based, Staphylococcus aureus; conditions: Staphylococcus aureus, SCVCF1DS
S. aureus 8325-4 = assay: MIC, microdilution in CAMHB 24 h; format: cell-based, Staphylococcus aureus; conditions: Staphylococcus aureus, 83254; 8325-4; Laboratory strain; read-out: MIC
S. aureus CF6B-L = assay: MIC, microdilution in CAMHB 24 h; format: cell-based, Staphylococcus aureus; conditions: Staphylococcus aureus, CF6BL; CF6B-L; Human (CF lungs); read-out: MIC
S. aureus CF07-L = assay: MIC, microdilution in CAMHB 24 h; format: cell-based, Staphylococcus aureus; conditions: Staphylococcus aureus, CF07L; CF07-L; Human (CF lungs); read-out: MIC
S. aureus CF4B-L = assay: MIC, microdilution in CAMHB 24 h; format: cell-based, Staphylococcus aureus; conditions: Staphylococcus aureus, CF4BL; CF4B-L; Human (CF lungs); read-out: MIC
S. aureus SCV CF07-S = assay: MIC, microdilution in BHI 48 h (Examples 1, 3); format: cell-based, Staphylococcus aureus
S. aureus CF35A-L = assay: MIC, microdilution in CAMHB 24 h; format: cell-based, Staphylococcus aureus; conditions: Staphylococcus aureus; CF35A-L; Human (CF lungs); MRSA; read-out: MIC
S. aureus ATCC BAA-41 = assay: MIC, microdilution in CAMHB 24 h; format: cell-based, Staphylococcus aureus; conditions: Staphylococcus aureus, ATCC BAA-41 / MRSA; ATCC BAA-41; Human (HA); MRSA; read-out: MIC
S. aureus MRSA COL = assay: MIC, microdilution in CAMHB 24 h; format: cell-based, Staphylococcus aureus; conditions: Staphylococcus aureus; MRSA COL; Human (SSTI); read-out: MIC
S. aureus CF9A-L = assay: MIC, microdilution in CAMHB 24 h; format: cell-based, Staphylococcus aureus; conditions: Staphylococcus aureus; CF9A-L; Human (CF lungs); MRSA; read-out: MIC
[2] = tested on: S. aureus SCV NewbouldΔhemB; assay: MIC, microdilution in BHI 48 h; format: cell-based, Staphylococcus aureus
S. aureus Newman = assay: MIC, microdilution in CAMHB 24 h; format: cell-based, Staphylococcus aureus; conditions: Staphylococcus aureus; Newman; Human (Osteo); read-out: MIC
S. aureus Mu50 = assay: MIC, microdilution in CAMHB 24 h; format: cell-based, Staphylococcus aureus; conditions: Staphylococcus aureus; Mu50; Human (SSTI); MRSA, VISA; read-out: MIC
S. aureus CF1A-L = assay: MIC, microdilution in CAMHB 24 h; format: cell-based, Staphylococcus aureus; conditions: Staphylococcus aureus, CF1AL; CF1A-L; Human (CF lungs); read-out: MIC
S. aureus N315 = assay: microbe, parasite or virus in culture; format: cell-based, Staphylococcus aureus; conditions: Staphylococcus aureus, MRSA
[3] = tested on: S. aureus Newbould (normal strain); assay: MIC, microdilution in BHI 48 h; format: cell-based, Staphylococcus aureus; conditions: Staphylococcus aureus; Newbould, normal strain; read-out: MIC
S. aureus Newbould = assay: MIC, microdilution in CAMHB 24 h; format: cell-based, Staphylococcus aureus; conditions: Staphylococcus aureus; Newbould; Cow (mastitis); read-out: MIC
[4] = tested on: S. aureus CF1A-L (normal strain); assay: MIC, microdilution in BHI 48 h; format: cell-based, Staphylococcus aureus; conditions: Staphylococcus aureus; CF1A-L, normal strain; read-out: MIC
S. aureus ATCC 29213 [5] = assay: MIC, microdilution in BHI 48 h (Examples 1, 3); format: cell-based, Staphylococcus aureus
S. aureus ATCC 29213 [6] = assay: MIC, microdilution in CAMHB 24 h, with or without tomatidine/compound; format: cell-based, Staphylococcus aureus; conditions: ATCC 29213; for MIC: Staphylococcus aureus, ATCC29213
[7] = Staphylococcus aureus, CF07-L, normal strain, read-out: MIC
[8] = Staphylococcus aureus, SCVCF07S

SMILES: O=C(O)c1cn(C2CC2)c2cc(N3CCNCC3)c(F)cc2c1=O [Ciprofloxacin, ciprofloxacin]
- MIC (S. aureus CF2A-L): 0.25 µg/mL (≈ 0.754 µM)
- MIC (S. aureus SHY97-3906): 0.25 µg/mL (≈ 0.754 µM)
- MIC (S. aureus ATCC 43300): 0.5 µg/mL (≈ 1.51 µM)
- MIC (S. aureus Sa228c): > 64 µg/mL
- MIC (S. aureus CF7A-L): > 64 µg/mL
- MIC ([1]; CF07-L + HQNO at 20 μg/ml): 0.25 µg/mL
- MIC ([1]; CF07-L, without HQNO): 0.5 µg/mL (≈ 1.51 µM)
- MIC [1, 7]: 0.5 µg/mL (≈ 1.51 µM)
- MIC (S. aureus CF8E-L): 1 µg/mL (≈ 3.02 µM)
- MIC (S. aureus MA078038): 16 µg/mL (≈ 48.3 µM)
- MIC (S. aureus Sa220c): 32 µg/mL (≈ 96.6 µM)
- MIC (S. aureus SCV CF1D-S): 0.12 µg/mL (≈ 0.362 µM)
- MIC (S. aureus 8325-4): 0.25 to 0.5 µg/mL (≈ 0.754 to 1.51 µM)
- MIC (S. aureus CF6B-L): > 64 µg/mL
- MIC (S. aureus CF07-L): 0.5 µg/mL (≈ 1.51 µM)
- MIC (S. aureus CF4B-L): 0.25 to 0.5 µg/mL (≈ 0.754 to 1.51 µM)
- MIC (S. aureus SCV CF07-S; CF07-S + HQNO at 20 μg/ml): 0.12 µg/mL
- MIC (S. aureus SCV CF07-S; CF07-S, without HQNO): 0.12 µg/mL (≈ 0.362 µM)
- MIC (S. aureus SCV CF07-S; [8]): 0.12 µg/mL (≈ 0.362 µM)
- MIC (S. aureus CF35A-L): > 64 µg/mL
- MIC (S. aureus ATCC BAA-41): > 64 µg/mL
- MIC (S. aureus MRSA COL): 0.5 µg/mL (≈ 1.51 µM)
- MIC (S. aureus CF9A-L): > 64 µg/mL
- MIC ([2]; Staphylococcus aureus): 0.12 to 0.25 µg/mL (≈ 0.362 to 0.754 µM)
- MIC (S. aureus Newman): 0.25 µg/mL (≈ 0.754 µM)
- MIC (S. aureus Mu50): 32 to 64 µg/mL (≈ 96.6 to 193 µM)
- MIC (S. aureus CF1A-L): 0.5 to 1 µg/mL (≈ 1.51 to 3.02 µM)
- MIC (S. aureus N315): 0.25 µg/mL (≈ 0.754 µM)
- MIC [3]: 0.25 to 0.5 µg/mL (≈ 0.754 to 1.51 µM)
- MIC (S. aureus Newbould): 0.25 µg/mL (≈ 0.754 µM)
- MIC [4]: 0.5 µg/mL (≈ 1.51 µM)

SMILES: CC[C@H]1OC(=O)[C@H](C)[C@@H](O[C@H]2C[C@@](C)(OC)[C@@H](O)[C@H](C)O2)[C@H](C)[C@@H](O[C@@H]2O[C@H](C)C[C@H](N(C)C)[C@H]2O)[C@](C)(O)C[C@@H](C)C(=O)[C@H](C)[C@@H](O)[C@]1(C)O [Erythromycin, erythromycin]
- MIC (S. aureus CF2A-L): 0.5 µg/mL (≈ 0.681 µM)
- MIC (S. aureus SHY97-3906): 0.12 to 0.25 µg/mL (≈ 0.164 to 0.341 µM)
- MIC (S. aureus ATCC 43300): > 64 µg/mL
- MIC (S. aureus Sa228c): > 64 µg/mL
- MIC (S. aureus ATCC 29213 [5]; ATCC 29213 + HQNO at 20 μg/ml): 0.25 µg/mL
- MIC (S. aureus ATCC 29213 [5]; Staphylococcus aureus, ATCC29213, ATCC 29213, without HQNO, read-out: MIC): 0.12 to 0.25 µg/mL (≈ 0.164 to 0.341 µM)
- MIC (S. aureus ATCC 29213 [5]; Staphylococcus aureus, ATCC29213, ATCC 29213 in BHI, read-out: MIC): 0.12 to 0.25 µg/mL (≈ 0.164 to 0.341 µM)
- MIC (S. aureus ATCC 29213 [5]; Staphylococcus aureus, ATCC29213, ATCC 29213 in MHBCA, read-out: MIC): 0.12 to 0.5 µg/mL (≈ 0.164 to 0.681 µM)
- MIC (S. aureus CF7A-L): > 64 µg/mL
- MIC ([1]; CF07-L + HQNO at 20 μg/ml): 0.25 µg/mL
- MIC ([1]; CF07-L, without HQNO): 0.25 µg/mL (≈ 0.341 µM)
- MIC [1, 7]: 0.25 µg/mL (≈ 0.341 µM)
- MIC (S. aureus CF8E-L): 0.5 µg/mL (≈ 0.681 µM)
- MIC (S. aureus MA078038): 64 µg/mL (≈ 87.2 µM)
- MIC (S. aureus Sa220c): 0.5 to 1 µg/mL (≈ 0.681 to 1.36 µM)
- MIC (S. aureus SCV CF1D-S): 0.12 µg/mL (≈ 0.164 µM)
- MIC (S. aureus 8325-4): 0.25 to 0.5 µg/mL (≈ 0.341 to 0.681 µM)
- MIC (S. aureus CF6B-L): 0.5 to 2 µg/mL (≈ 0.681 to 2.73 µM)
- MIC (S. aureus CF07-L): 0.5 µg/mL (≈ 0.681 µM)
- MIC (S. aureus CF4B-L): 0.5 µg/mL (≈ 0.681 µM)
- MIC (S. aureus SCV CF07-S; CF07-S + HQNO at 20 μg/ml): 0.06 to 0.12 µg/mL
- MIC (S. aureus SCV CF07-S; CF07-S, without HQNO): 0.12 µg/mL (≈ 0.164 µM)
- MIC (S. aureus SCV CF07-S; [8]): 0.12 µg/mL (≈ 0.164 µM)
- MIC (S. aureus CF35A-L): > 64 µg/mL
- MIC (S. aureus ATCC BAA-41): > 64 µg/mL
- MIC (S. aureus MRSA COL): 0.5 µg/mL (≈ 0.681 µM)
- MIC (S. aureus CF9A-L): > 64 µg/mL
- MIC ([2]; NewbouldΔhemB, SCV, listed as ERY): >16 µg/mL
- MIC ([2]; Staphylococcus aureus): > 16 µg/mL
- MIC (S. aureus Newman): 0.5 µg/mL (≈ 0.681 µM)
- Fold (−TO/+TO) (S. aureus ATCC 29213 [6]; tomatidine at 8 μg/ml): 1 fold
- MIC (S. aureus ATCC 29213 [6]; Human (SSTI), read-out: MIC): 0.5 µg/mL (≈ 0.681 µM)
- MIC (S. aureus ATCC 29213 [6]; absence of tomatidine, read-out: MIC −TO): 0.5 µg/mL (≈ 0.681 µM)
- MIC (S. aureus ATCC 29213 [6]; presence of tomatidine at 8 μg/ml, read-out: MIC +TO): 0.5 µg/mL
- MIC (S. aureus Mu50): > 64 µg/mL
- MIC (S. aureus CF1A-L): 0.25 to 0.5 µg/mL (≈ 0.341 to 0.681 µM)
- MIC (S. aureus N315): > 64 µg/mL
- MIC [3]: 0.25 µg/mL (≈ 0.341 µM)
- MIC (S. aureus Newbould): 0.5 µg/mL (≈ 0.681 µM)
- MIC [4]: 0.25 µg/mL (≈ 0.341 µM)
